Results taken from EP1751175B1, “INTERLEUKIN-1 RECEPTOR ANTAGONISTS, COMPOSITIONS, AND METHODS OF TREATMENT” (VALORISATION-RECHERCHE, Société en Commandite, priority 2004, dated 2005).
Where a SMILES comes first, the peptide text is derived from it. Where no end group is shown, it is not given here. [ ]: non-standard residue; d: D form.

How the values were obtained:
[1] = test system: IL-1 ß-induced proliferation and PGE2 synthesis; assay: Structure vs activity summary of Table 4 (proliferation and PGE2 synthesis, not separated); format: cell-based; details: Table 4, derivatives of TTI-101.107
TF-1 cells = molecular target: T1, TF-1 cells (Homo sapiens, UniProt P14778+Q9NPH3); assay: IL-1ß-induced TF-1 proliferation; format: cell-based; details: Table 5; for Emax: TF-1
T1 sequence (P14778 18-569): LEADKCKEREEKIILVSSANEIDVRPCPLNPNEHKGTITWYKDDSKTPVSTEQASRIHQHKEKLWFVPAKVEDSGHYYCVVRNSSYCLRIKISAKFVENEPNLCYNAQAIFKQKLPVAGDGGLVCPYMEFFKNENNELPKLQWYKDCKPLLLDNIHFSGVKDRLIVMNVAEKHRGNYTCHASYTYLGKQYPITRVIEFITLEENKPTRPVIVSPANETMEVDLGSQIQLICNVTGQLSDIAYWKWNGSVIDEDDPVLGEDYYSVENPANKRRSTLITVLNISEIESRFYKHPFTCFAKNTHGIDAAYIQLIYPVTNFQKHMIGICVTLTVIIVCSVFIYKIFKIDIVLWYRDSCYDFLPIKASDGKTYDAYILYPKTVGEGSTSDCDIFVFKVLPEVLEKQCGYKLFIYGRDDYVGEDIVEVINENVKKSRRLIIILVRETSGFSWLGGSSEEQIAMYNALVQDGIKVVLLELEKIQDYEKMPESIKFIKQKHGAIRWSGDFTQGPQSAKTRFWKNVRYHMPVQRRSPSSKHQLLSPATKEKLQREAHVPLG
T1 sequence (Q9NPH3 21-570): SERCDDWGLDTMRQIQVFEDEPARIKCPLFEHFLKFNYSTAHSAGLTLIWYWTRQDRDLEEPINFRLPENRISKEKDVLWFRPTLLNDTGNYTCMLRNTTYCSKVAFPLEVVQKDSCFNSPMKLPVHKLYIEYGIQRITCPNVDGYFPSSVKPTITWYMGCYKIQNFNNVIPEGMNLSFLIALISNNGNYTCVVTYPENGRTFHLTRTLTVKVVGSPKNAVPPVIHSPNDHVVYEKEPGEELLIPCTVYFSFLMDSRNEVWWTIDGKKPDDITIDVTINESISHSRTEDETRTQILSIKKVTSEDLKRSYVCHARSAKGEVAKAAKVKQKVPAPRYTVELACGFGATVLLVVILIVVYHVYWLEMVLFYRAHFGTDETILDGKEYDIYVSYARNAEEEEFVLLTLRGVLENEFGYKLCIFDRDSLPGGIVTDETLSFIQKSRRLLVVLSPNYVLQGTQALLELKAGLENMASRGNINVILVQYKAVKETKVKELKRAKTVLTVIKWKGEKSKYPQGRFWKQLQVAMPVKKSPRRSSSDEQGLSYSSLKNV

rats = assay: TNBS-induced inflammatory bowel disease model in rats, 48 h: MPO activity, macroscopic score, histologic score (Table 3: 1 no injury to 5 marked denudation); format: in vivo
Protocol: Colon inflammation was induced by intra-rectal/colon administration of the hapten trinitrobenzene sulphonic acid (TNBS) as described in Example 4. Two hours prior to TNBS administration, peptides, peptidomimetics or 0.9% saline were administered intravenously (iv) via the caudal vein (various concentrations of mg/kg/d) (total volume of 0.3ml). […] A third group (control) was not injected with TNBS. For intermittent administration, fifteen minutes after TNBS administration, 101.10 (0.25-1 mg/kg), 101.107 (0.2 mg/kg), 101.113 (0.05-1 mg/kg) were administered by intermittent intraperitoneal injection (ip). Also, these IL-1R antagonists were given twice a day (BID); Remicade® (anti-TNFα) (10 mg/kg) and dexamethasone (0.75 mg/kg) were administered intraperitoneally but only once a day (qd). The intrarectal administration (ir) of 101.10, 101.113 (1 and 2.5 mg/kg), and 5-ASA (50 mg/kg) was done one hour after TNBS administration, and twice a day, except for 5-ASA which is once a day. Finally, 101.10 (1-5 mg/kg) was also administered orally by gavage (po), twice a day. Forty-eight hours after administration of TNBS, rats were killed by CO2 inhalation. Colon was removed and assessed macroscopically (adhesions, ulcerations, discoloration and bleeding) and histologically (neutrophil infiltration, epithelial injury, crypt distortion and ulcerations). One to seven animals per group were studied, according to treatments. Myeloperoxidase (MPO) activity was measured on tissue lysates.
TABLE 3: Histological Injury Scoring System

piglet pial vessels = test system: piglet pial vessels; design: species or system Yorkshire piglets
Protocol: Ex vivo vasomotor response on brain vessels was performed as described (Li et al., 1996; Hou et al., 2000; Hou et al., 2001; Hou et al., 2003). Brains were removed from Yorkshire piglets. Slices of cortex exposing the pial vessels were pinned to a wax base of a 20 ml bath containing Krebs buffer (pH 7.4) equilibrated with 95% O2, 5% CO2 and maintained at 37°C. Microvessels were visualized and recorded using a video camera mounted on a dissecting microscope. Vascular diameter was measured using a digital image analyzer. Vascular diameter was recorded before and after topical application of pre-constricting agent, U46619 (10^-7 M). After stabilization of preparation, the ligand (IL-1β, 75 ng/ml) was added until stable vasodilation was detected. Peptides were subsequently added at different concentrations from 10^-10 to 10^-5 M. Reversal of vasodilatation was visualized and measured as previously described (Hou, et al. 2000; Hou et al. 2001; Hou et al. 2003); triplicate measurements were conducted on 2 animals.

[2] = intermittent injection (ip), dose 0.75 - qd mg/kg/d
[3] = intrarectal administration, dose 50.0-qd mg/kg/d

| activity compared with 101.113, in words (TF-1 cells) | Emax (TF-1 cells) [%] | Compound | also measured |
| --- | --- | --- | --- |
|  |  | XRYTPELA (X=Acetyl) (Ac-[dR][dY][dT][dP][dE][dL][dA]) [API-101.121] | activity of the peptide, in words [1]: completely lost |
| little or no activity |  | XYTPEL (X=Ornithine) [API-101.126] | Emax (%) (TF-1 cells): 0% |
|  |  | C[C@@H]1C[C@H]2[C@@H]3CCC4=CC(=O)C=C[C@]4(C)[C@@]3(F)[C@@H](O)C[C@]2(C)[C@@]1(O)C(=O)CO [Dexamethasone, dexamethasone] | MPO (% of TNBS+Saline) (rats; [2]): 60 % of TNBS+Saline; histologic evaluation (median score) (rats; [2]): 3; macroscopic (median score) (rats; [2]): 0.87 |
|  |  | CC(C)C[C@@H](NC(=O)[C@@H](CCC(=O)O)NC(=O)[C@H](NC(=O)[C@H](NC(=O)[C@@H](Cc1ccc(O)cc1)NC(=O)[C@@H](CCCNC(=N)N)NC(=O)[C@H]1CCCN1C(=O)[C@@H](C)N)[C@H](C)O)C(C)C)C(=O)N[C@H](C)C(=O)O [API-101] | IC50 (piglet pial vessels): 182 nM |
|  |  | Nc1ccc(O)c(C(=O)O)c1 [5-ASA] | MPO (% of TNBS+Saline) (rats; [3]): 49 % of TNBS+Saline; histologic evaluation (median score) (rats; [3]): 3.3; macroscopic (median score) (rats; [3]): 1.5 |
| little or no activity |  | KYTPEL [API-101.133] | Emax (%) (TF-1 cells): <10% |
| relatively decreased | 35 | CC(C)C[C@@H](NC(=O)[C@@H](CCC(=O)O)NC(=O)[C@H]1CCCN1C(=O)[C@H](NC(=O)[C@@H](Cc1ccccc1)NC(=O)[C@H](N)CCCNC(=N)N)[C@H](C)O)C(N)=O [API-101.132, RFTPEL] (HELM PEPTIDE1{[dR].[dF].[dT].[dP].[dE].[dL].[am]}$$$$V2.0; N-terminus and C-terminus assumed) |  |
|  | 63 | CC(C)C[C@@H](NC(=O)[C@@H](CCC(=O)O)NC(=O)[C@H]1CCCN1C(=O)[C@H](NC(=O)[C@@H](Cc1ccc(O)cc1)NC(=O)[C@@H](N)CCCNC(=N)N)[C@H](C)O)C(N)=O [API-101.135, *RYTPEL] |  |
|  | 70 | CC(C)C[C@@H](NC(=O)[C@@H](CCC(=O)O)NC(=O)[C@H]1CCCN1C(=O)[C@H](NC(=O)[C@@H](Cc1ccc(O)cc1)NC(=O)[C@H](N)CCCNC(=N)N)[C@H](C)O)C(=O)O [API-101.113, RYTPEL] |  |
| relatively decreased |  | CC(C)C[C@@H](NC(=O)[C@@H](CCC(=O)O)NC(=O)[C@H]1CCCN1C(=O)[C@H](NC(=O)[C@@H](Cc1c[nH]c2ccccc12)NC(=O)[C@H](N)CCCNC(=N)N)[C@H](C)O)C(N)=O [API-101.128, RWTPEL] |  |
|  | 50 | CC(C)[C@@H](NC(=O)[C@@H](CCC(=O)O)NC(=O)[C@H]1CCCN1C(=O)[C@H](NC(=O)[C@@H](Cc1ccc(O)cc1)NC(=O)[C@H](N)CCCNC(=N)N)[C@H](C)O)C(N)=O [API-101.129, RYTPEV] |  |
|  | 10 | CC(C)C[C@@H](NC(=O)[C@@H](CCC(=O)O)NC(=O)[C@H]1CCCN1C(=O)[C@H](NC(=O)[C@@H](Cc1ccc(O)cc1)NC(=O)[C@H](N)CCCNC(N)=O)[C@H](C)O)C(N)=O [API-101.134, XYTPEL (X=Citrulline)] |  |
| completely abolished the activity |  | RFVPELA [API-101.127] |  |
